Measurements published in ChEMBL document CHEMBL2029244, “Synthesis and antimycobacterial activity of prodrugs of sulfur dioxide (SO2)” (Bioorg Med Chem Lett, 2012).
≈ marks a conversion by molar mass, not a printed value.

What was measured:
[1] = Drug degradation assessed as decrease in compound level at pH 7.4 after 30 mins in the presence of 2-mercaptoethanol; type: physicochemical; settings: buffer, pH 7.4, 0.5 h
[2] = Drug degradation assessed as 2-hydroxyethylthio-2,4-dinitrobenzene production at pH 7.4 after 6 hrs in the presence of 2-mercaptoethanol; type: physicochemical; settings: buffer, pH 7.4, 6 h
[3] = test system: Mycobacterium tuberculosis; assay: Antimycobacterial activity against Mycobacterium tuberculosis H37Rv after 28 days; type: functional; settings: 672 h

SMILES | Drug degradation [1] | Drug degradation [2] | MIC [3]
COc1ccc(NS(=O)(=O)c2ccc([N+](=O)[O-])cc2[N+](=O)[O-])cc1 | Active | Active | –
COc1ccc(CNS(=O)(=O)c2ccc([N+](=O)[O-])cc2[N+](=O)[O-])cc1 | – | – | 0.25 µg/mL (≈ 0.681 µM)
O=[N+]([O-])c1ccc(S(=O)(=O)NCc2ccc(Cl)cc2)c([N+](=O)[O-])c1 | – | – | 0.4 µg/mL (≈ 1.08 µM)
O=[N+]([O-])c1ccc(S(=O)(=O)NCc2ccc(C(F)(F)F)cc2)c([N+](=O)[O-])c1 | – | – | 0.4 µg/mL (≈ 0.987 µM)
O=[N+]([O-])c1ccc(S(=O)(=O)NCc2ccccc2C(F)(F)F)c([N+](=O)[O-])c1 | – | – | 1.56 µg/mL (≈ 3.85 µM)
COc1ccccc1NS(=O)(=O)c1ccc([N+](=O)[O-])cc1[N+](=O)[O-] | – | – | 3.13 µg/mL (≈ 8.86 µM)
O=[N+]([O-])c1ccc(S(=O)(=O)Nc2ccc(F)cc2)c([N+](=O)[O-])c1 | – | – | 6.25 µg/mL (≈ 18.3 µM)
N#Cc1ccc(NS(=O)(=O)c2ccc([N+](=O)[O-])cc2[N+](=O)[O-])cc1 | – | – | > 50 µg/mL
C[C@H](NS(=O)(=O)c1ccc([N+](=O)[O-])cc1[N+](=O)[O-])c1ccccc1 | – | – | 1.56 µg/mL (≈ 4.44 µM)
C[C@@H](NS(=O)(=O)c1ccc([N+](=O)[O-])cc1[N+](=O)[O-])c1ccccc1 | – | – | 1.56 µg/mL (≈ 4.44 µM)
O=[N+]([O-])c1ccc(S(=O)(=O)NCCc2ccccc2)c([N+](=O)[O-])c1 | – | – | 0.4 µg/mL (≈ 1.14 µM)
O=[N+]([O-])c1ccc(S(=O)(=O)N(Cc2ccccc2)c2ccccc2)c([N+](=O)[O-])c1 | – | – | 1.56 µg/mL (≈ 3.77 µM)
CN(c1ccccc1)S(=O)(=O)c1ccc([N+](=O)[O-])cc1[N+](=O)[O-] | – | – | 0.78 µg/mL (≈ 2.31 µM)
CN(CCc1ccccc1)S(=O)(=O)c1ccc([N+](=O)[O-])cc1[N+](=O)[O-] | – | – | 0.78 µg/mL (≈ 2.13 µM)
O=[N+]([O-])c1ccc(S(=O)(=O)N(CCc2ccccc2)Cc2ccccc2)c([N+](=O)[O-])c1 | – | – | 3.13 µg/mL (≈ 7.09 µM)
CC[C@@H](CO)NCCN[C@@H](CC)CO [ETHAMBUTOL] | – | – | 1.56 µg/mL (≈ 7.64 µM)
NNC(=O)c1ccncc1 [ISONIAZID] | – | – | 0.05 µg/mL (≈ 0.365 µM)
NC(=O)c1cnccn1 [PYRAZINAMIDE] | – | – | 6.25 µg/mL (≈ 50.8 µM)
